Measured values reported in patent US12234254B2, “Methods for producing crystalline L-glufosinate ammonium monohydrate” (BASF SE, priority 2019, dated 2025).

Key:
[1] = Hygroscopicity of solid L-glufosinate forms in contact with ambient air; format: physicochemical; conditions: contact with ambient air in the laboratory; compared with non-crystalline forms
Description: L-glufosinate produced in a stable solid form is highly desirable for commercial manufacture. Some forms of solid L-glufosinate are hygroscopic, and therefore extra measures must be taken to eliminate contact between these solid L-glufosinate forms and water vapor. […] Several crystalline forms of L-glufosinate are disclosed in WO 2019/018406, and two of these forms (indicated as “Form A” and “Form B”) have now been identified as monohydrate crystals of L-glufosinate ammonium.

[2] = Particle size measurement (Dv90, volumetric distribution); format: physicochemical
Description: The size range of crystalline L-glufosinate ammonium monohydrate particles obtained by using the methods provided herein is convenient for use in formulations. In some embodiments, the crystals are mixed with water and other formulation ingredients to form an herbicidal product. In some embodiments, 90% of the crystalline L-glufosinate ammonium particles are less than about 350 microns as determined by volumetric distribution measurement basis (i.e., “Dv90”). For example, the Dv90 of the particles can be less than about 350 microns or less than about 300 microns or less than about 250 microns or less than about 200 microns or less than about 150 microns or less than about 125 microns or less than about 100 microns or less than about 75 microns or less than about 50 microns or less than about 25 microns. […]
L-glufosinate ammonium starting material (50 g, 77% total L-glufosinate ammonium, 7.3% ammonium glutamate) was added to 35.0 g of 45:55 (w:w) methanol:water. […] The crystals were analyzed by X-ray powder diffraction and the resulting pattern was consistent with that of L-glufosinate ammonium monohydrate Form B, however several peaks consistent with L-glufosinate ammonium monohydrate Form A were present.

plants = conditions: Ruhland et al. (2002); cited from earlier work
[3] = tested on: glutamine synthetase enzyme in plants; conditions: leads to plant death; cited from earlier work
[4] = DAAO enzyme kinetics assay (HRP/TBHBA/4-AAP dye, Michaelis Menten, Vmax); format: biochemical; conditions: 30° C., 460 nm, measurement at 15 minutes, final DAAO 5 μg/mL, racemic glufosinate substrate, pH 8.0 potassium phosphate buffer
Description: The following dye stock solutions were prepared: a 20 mg/mL stock solution of 2,4,6-tribromo-3-hydroxybenzoic acid (TBHBA) in DMSO; and a 100 mg/mL stock solution of 4-aminoantipyrine (4-AAP) in water. The following enzyme stock solution was prepared: a 1 mg/mL stock solution of horseradish peroxide (HRP) type 6 in a pH 8.0 potassium phosphate buffer. The following substrate stock solution was prepared: varying concentrations of racemic glufosinate in a pH 8.0 potassium phosphate buffer such that the initial reaction concentrations of racemic glufosinate were 0, 1, 10, 100, 250, and 500 nM. DAAO enzymes were made in E. coli which were lysed and the cell free extracts freeze dried. Enzyme amounts in the cell free extracts were quantified using SDS-PAGE and staining by Coomassie Blue.
Mix A is a combination of the substrate and HRP enzyme. Solutions were prepared for each substrate concentration to be assayed using reaction buffer. The solutions were two times the final substrate concentration and 0.2 mg/mL for the HRP solution.
Mix B is a dye mixture. To 5 mL of reaction buffer was added 120 μL of TBHBA solution and 400 μL of 4-AAP solution.
Mix C is an enzyme mixture. A 0.02 mg/mL solution of DAAO in reaction buffer was prepared. […]
The enzyme kinetics were measured as described above, plotted on a Michaelis Menten graph, and used to calculate Vmax.

## CP(=O)(O)CC[C@H](N)C(=O)O [crystalline L-glufosinate P free acid, L-glufosinate P free acid]
[1]
  hygroscopicity: significantly lower

## CP(=O)(O)CC[C@H](N)C(=O)O.N.O [L-glufosinate ammonium monohydrate]
[2]; Example 9, crystallized with 0.4 M ammonium hydroxide
  Dv90 particle size: 70.7 microns
[2]; Example 10, crystallized without ammonium hydroxide
  Dv90 particle size: 102 microns

## CP(=O)(O)CC[C@H](N)C(=O)O [amorphous L-glufosinate solids, L-glufosinate]
[1]
  hygroscopicity: particularly hygroscopic

## CP(=O)(O)CC[C@@H](N)C(=O)O [D-glufosinate]
plants
  herbicidal activity: essentially no herbicidal activity

## CP(=O)(O)CC[C@H](N)C(=O)O [L-glufosinate]
[3]
  inhibition of glutamine synthetase enzyme: inhibits

## CP(=O)(O)CC[C@H](N)C(=O)O.N.O [Form A, L-glufosinate ammonium monohydrate]
[1]
  hygroscopicity: low hygroscopicity

B1: Mut846: variant DAAO enzyme, sequence provided in SEQ ID NO: 2 (protein)
chain: MASPSNKQIVVLGAGVIGLTTAVKIQEQRGYQVTIIAEILPSDPKSIRYTSHWAGAHHVSLAGEDKLQARVDQETFGVMWEMSAPGGEAEGCFLRQKQVEYYCDKQADPHPLEHMPDFRRLDENSLIPNTVAGIGFTTLTIDTPIYLNYLLSRFLARGGAIVRGSVQHISQVVDGGARVFTGSKSAGVPVDAVIVCAGIGARFLGGVEDKDVYPIRGQTVLLRAPWIRFGRTMSSKDGLYTYIIPRRSGDVIVGGIKVPNDWYPTPRPETTQDILKRGLALCPELAPQSIRDQREPTVDDLRPLVIEEGCGLRPGRKGGIRLEVEWYAKTDGQAPKVPIVHNYGHGGAGFQASWGSASVALELLEKALAQARLAM
modifications: Rhodosporidium toruloides
[4]
  Vmax: 5.54 µmol/min/mg
